# Species on record: Rattus norvegicus
# Assay: DrugMatrix - Regimen: Daily Repeat
# Assay type: toxicity, organism-based, Sprague-Dawley
# Design: regimen Daily Repeat, gender Male, age 6-8 weeks
# Settings: in vivo, po, route oral GAVAGE, vehicle 100 % WATER; for ABSOLUTE BASOPHIL / ABSOLUTE EOSINOPHIL / ABSOLUTE LYMPHOCYTE / ABSOLUTE MONOCYTE / ABSOLUTE SEGMENTED NEUTROPHIL / BASOPHIL / EOSINOPHIL / ERYTHROCYTE COUNT / HEMATOCRIT / HEMOGLOBIN / LEUKOCYTE COUNT / LYMPHOCYTE / MEAN CORPUSCULAR HEMOGLOBIN / MEAN CORPUSCULAR HEMOGLOBIN CONCENTRATION / MEAN CORPUSCULAR VOLUME / MONOCYTE / NEUTROPHIL / NUCLEATED RED BLOOD CELLS / PLATELET COUNT: tissue Blood; for ALANINE AMINOTRANSFERASE / ALBUMIN / ALKALINE PHOSPHATASE / ASPARTATE AMINOTRANSFERASE / BLOOD UREA NITROGEN / CARBON DIOXIDE / CHLORIDE / CHOLESTEROL / CREATINE PHOSPHOKINASE / CREATININE / GLUCOSE / LACTATE DEHYDROGENASE / LIPASE / PHOSPHORUS / SODIUM / TOTAL BILIRUBIN / TOTAL PROTEIN / URIC ACID: tissue Plasma
# [1] = 100 mg/kg, 120 h, dose level Low, time 5 day
# [2] = 500 mg/kg, 72 h, dose level High, time 3 day
# [3] = 500 mg/kg, 120 h, dose level High, time 5 day
structure (smiles),measurement,setting,value
CCN(CC)C(=S)SSC(=S)N(CC)CC,ABSOLUTE BASOPHIL,[1],0 CELLS/uL
same,ABSOLUTE EOSINOPHIL,[1],0 CELLS/uL
same,ABSOLUTE LYMPHOCYTE,[1],13796 CELLS/uL
same,ABSOLUTE MONOCYTE,[1],155.67 CELLS/uL
same,ABSOLUTE SEGMENTED NEUTROPHIL,[1],1615 CELLS/uL
same,BASOPHIL,[1],0%
same,EOSINOPHIL,[1],0%
same,ERYTHROCYTE COUNT,[1],5.47 x10E6/uL
same,HEMATOCRIT,[1],33.87%
same,HEMOGLOBIN,[1],13.53 G/DL
same,LEUKOCYTE COUNT,[1],15.57 x10E3/uL
same,LYMPHOCYTE,[1],89%
same,MEAN CORPUSCULAR HEMOGLOBIN,[1],24.8 pg
same,MEAN CORPUSCULAR HEMOGLOBIN CONCENTRATION,[1],39.97 G/DL
same,MEAN CORPUSCULAR VOLUME,[1],62 fL
same,MONOCYTE,[1],1%
same,NEUTROPHIL,[1],10%
same,NUCLEATED RED BLOOD CELLS,[1],0 /100WBC
same,PLATELET COUNT,[1],1356.33 x10E3/uL
same,ALANINE AMINOTRANSFERASE,[1],42.67 u/L
same,ALBUMIN,[1],4.1 G/DL
same,ALKALINE PHOSPHATASE,[1],265.33 u/L
same,ASPARTATE AMINOTRANSFERASE,[1],70 u/L
same,BLOOD UREA NITROGEN,[1],15.33 mg/dL
same,CARBON DIOXIDE,[1],31.67 mmol/L
same,CHLORIDE,[1],102.67 MEQ/L
same,CHOLESTEROL,[1],83.67 mg/dL
same,CREATINE PHOSPHOKINASE,[1],216.33 u/L
same,CREATININE,[1],0.15 mg/dL
same,GLUCOSE,[1],123.67 mg/dL
same,LACTATE DEHYDROGENASE,[1],231 u/L
same,LIPASE,[1],11.33 u/L
same,PHOSPHORUS,[1],11.73 mg/dL
same,SODIUM,[1],145.07 MEQ/L
same,TOTAL BILIRUBIN,[1],0.2 mg/dL
same,TOTAL PROTEIN,[1],6 G/DL
same,URIC ACID,[1],1.37 mg/dL
same,ABSOLUTE BASOPHIL,[2],0 CELLS/uL
same,ABSOLUTE EOSINOPHIL,[2],32 CELLS/uL
same,ABSOLUTE LYMPHOCYTE,[2],16158.67 CELLS/uL
same,ABSOLUTE MONOCYTE,[2],362.67 CELLS/uL
same,ABSOLUTE SEGMENTED NEUTROPHIL,[2],2246.67 CELLS/uL
same,BASOPHIL,[2],0%
same,EOSINOPHIL,[2],0.33%
same,ERYTHROCYTE COUNT,[2],5.54 x10E6/uL
same,HEMATOCRIT,[2],34.57%
same,HEMOGLOBIN,[2],13.7 G/DL
same,LEUKOCYTE COUNT,[2],18.8 x10E3/uL
same,LYMPHOCYTE,[2],85%
same,MEAN CORPUSCULAR HEMOGLOBIN,[2],24.73 pg
same,MEAN CORPUSCULAR HEMOGLOBIN CONCENTRATION,[2],39.63 G/DL
same,MEAN CORPUSCULAR VOLUME,[2],62.43 fL
same,MONOCYTE,[2],2.33%
same,NEUTROPHIL,[2],12.33%
same,NUCLEATED RED BLOOD CELLS,[2],0 /100WBC
same,PLATELET COUNT,[2],1410.67 x10E3/uL
same,ALANINE AMINOTRANSFERASE,[2],78.33 u/L
same,ALBUMIN,[2],3.87 G/DL
same,ALKALINE PHOSPHATASE,[2],211.67 u/L
same,ASPARTATE AMINOTRANSFERASE,[2],279.33 u/L
same,BLOOD UREA NITROGEN,[2],11.33 mg/dL
same,CARBON DIOXIDE,[2],30.33 mmol/L
same,CHLORIDE,[2],102.33 MEQ/L
same,CHOLESTEROL,[2],124 mg/dL
same,CREATINE PHOSPHOKINASE,[2],747.67 u/L
same,CREATININE,[2],0.15 mg/dL
same,GLUCOSE,[2],121.33 mg/dL
same,LACTATE DEHYDROGENASE,[2],433.33 u/L
same,LIPASE,[2],11.33 u/L
same,PHOSPHORUS,[2],10.77 mg/dL
same,SODIUM,[2],143.53 MEQ/L
same,TOTAL BILIRUBIN,[2],0.13 mg/dL
same,TOTAL PROTEIN,[2],5.93 G/DL
same,URIC ACID,[2],1.53 mg/dL
same,ABSOLUTE BASOPHIL,[3],0 CELLS/uL
same,ABSOLUTE EOSINOPHIL,[3],134 CELLS/uL
same,ABSOLUTE LYMPHOCYTE,[3],14987.33 CELLS/uL
same,ABSOLUTE MONOCYTE,[3],0 CELLS/uL
same,ABSOLUTE SEGMENTED NEUTROPHIL,[3],1378.67 CELLS/uL
same,BASOPHIL,[3],0%
same,EOSINOPHIL,[3],0.67%
same,ERYTHROCYTE COUNT,[3],4.95 x10E6/uL
same,HEMATOCRIT,[3],30.57%
same,HEMOGLOBIN,[3],12.3 G/DL
same,LEUKOCYTE COUNT,[3],16.5 x10E3/uL
same,LYMPHOCYTE,[3],90.33%
same,MEAN CORPUSCULAR HEMOGLOBIN,[3],24.83 pg
same,MEAN CORPUSCULAR HEMOGLOBIN CONCENTRATION,[3],40.2 G/DL
same,MEAN CORPUSCULAR VOLUME,[3],61.67 fL
same,MONOCYTE,[3],0%
same,NEUTROPHIL,[3],9%
same,NUCLEATED RED BLOOD CELLS,[3],0 /100WBC
same,PLATELET COUNT,[3],1031.33 x10E3/uL
same,ALANINE AMINOTRANSFERASE,[3],55 u/L
same,ALBUMIN,[3],3.83 G/DL
same,ALKALINE PHOSPHATASE,[3],254 u/L
same,ASPARTATE AMINOTRANSFERASE,[3],134.33 u/L
same,BLOOD UREA NITROGEN,[3],16.33 mg/dL
same,CARBON DIOXIDE,[3],27 mmol/L
same,CHLORIDE,[3],102.67 MEQ/L
same,CHOLESTEROL,[3],109 mg/dL
same,CREATINE PHOSPHOKINASE,[3],292.67 u/L
same,CREATININE,[3],0.16 mg/dL
same,GLUCOSE,[3],155.33 mg/dL
same,LACTATE DEHYDROGENASE,[3],217.33 u/L
same,LIPASE,[3],11.33 u/L
same,PHOSPHORUS,[3],12 mg/dL
same,SODIUM,[3],141.9 MEQ/L
same,TOTAL BILIRUBIN,[3],0.17 mg/dL
same,TOTAL PROTEIN,[3],6 G/DL
same,URIC ACID,[3],1.6 mg/dL

# From ChEMBL document CHEMBL3885881, “DrugMatrix”
